# Measurements: publication PMC10671074, “Tumor Regression upon Intratumoral and Subcutaneous Dosing of the STING Agonist ALG-031048 in Mouse Efficacy Models” (International Journal of Molecular Sciences, 2023)
# Read-outs that look alike come from different tables or passages of the source.
# Assays:
# [1] = test system: plasma cytokines; assay: Plasma cytokine analysis in CT26-tumor-bearing mice; format: in vivo, mouse; conditions: CT26-bearing BALB/c, one IT dose of 100 μg, 4 h after dosing
# Description: Plasma levels of IFN-α, IFN-β, IL-2, TNF-α, IL-6, IL-12, IP-10, IFN-γ, and MCP-1 (in pg/mL) were measured using the ProcartaPlex 9-Plex (ThermoFisher Scientific) according to the manufacturer’s instructions. Data were processed using Milliplex Analyst software version 5.1 on a MAGPIX instrument (Luminex Corp., Austin, TX, USA).
# Figure S5. Plasma cytokine levels in female BALB/c mice bearing SC CT26 tumors receiving one IT dose of 100 μg ADU‐S100 or ALG‐031048, at a mean TV of 116 mm3. Cytokine concentrations were analyzed 4 hours after dos ing. Only statistically significant differences (unpaired, parametric t test) are indicated by brackets.
# (also on this page, place not known: pg/ml pg/ml pg/ml pg/ml pg/ml pg/ml pg/ml pg/ml pg/ml dosing.) […]
# 1 mg 4 mg Saline 25 g/kg S /kg SC
# Figure S8. Cytokine induction in CT26 tumor‐bearing mice upon SC administration of ALG‐031048.
# 10 mice per group were treated with 3 doses 3 days apart. Plasma samples were collected 6 hours […]
# [2] = test system: plasma cytokines; assay: Plasma cytokine levels in Hepa1–6 tumor-bearing mice; format: in vivo, mouse; conditions: Hepa1–6, 6 hours after the first dose
# Description: (§1) Figure S6. A: Tumor regression in Hepa1‐6 tumor‐bearing […] mice upon IT treatment with three doses of 25 μg (light blue) or 100 μ g ALG‐031048 (dark blue), in comparison to treatment with 10 mg/kg anti‐PD‐1 antibody twice per week, 6 doses total (red). Vehicle‐treated animals are shown in black; shown are the mean tumor volumes ± standard deviation for each group of 10 animals.
# (§2) Irregular, crater‐shaped tumors prevented accurate tumor volume measurement between Days 8‐
# (§3) 25. Treatment started when tumors reached an average volume of 98 mm3. Statistical analysis pro‐ vided in Table S4. B: Tumor weight for each group at the end of the study. Statistical analysis pro‐ vided in Table S5. C: Plasma cytokine levels 6 hours after the first dose. Each symbol represents one animal as well as the mean of the group (n=10). Unpaired t‐test was used to compare different groups: all groups for al l cytokines were statistically significant from each other with P‐values of < 0.0001 with the following exceptions: vehicle vs anti‐PD‐1 were non‐significant (all cytokines); the […]
# [3] = test system: Hepa1–6 tumors; assay: Hepa1–6 mouse hepatocellular carcinoma model; format: in vivo
# Description: The animals were fed ad libitum water (0.2-μm filtered, reverse osmosis, autoclaved), and standard irradiated rodent chow. The mice were housed on autoclaved, crushed corncob bedding, which was changed weekly, on a 12 h light cycle at 20–26 °C and 40–70% humidity.
# The Hepa1–6 tumor cells were maintained in vitro in DMEM supplemented with 10% FBS at 37 °C in an atmosphere of 5% CO2 in air. Cells in the exponential growth phase were harvested and quantitated using a cell counter, adjusted to 5 × 10^7/mL in PBS before tumor inoculation.
# Each mouse was inoculated subcutaneously in the right front flank region with Hepa1–6 tumor cells (5 × 10^6) in 0.1 mL PBS for tumor development. After tumor cell inoculation, the animals were checked daily for morbidity and mortality and for any effects of tumor growth or test articles on behavior such as mobility, food and water consumption, eye/hair matting, and any other abnormalities. Dosing started when the average tumor volume reached 98 mm^3. The anti-PD-1 antibody was dosed IP at 10 mg/kg twice per week (BIW), while ALG-031048 was dosed IT at 25 and 100 μg/animal on Days 1, 5, and 9. Tumor volumes were measured […], as described above.
# as §1, §2, §3
# [4] = Plasma stability, mouse; format: in vitro ADME; conditions: 37 °C, read-out: Plasma t½, Mouse
# Description: The plasma stability assay was carried out on 96-well microtiter plates. The test compounds at 5 µM and the reference compound (propantheline) at 1 µM final concentration were incubated separately at 37 °C with mouse or human plasma for 0, 30, 60, and 240 min. At the end of each incubation time point, 300 μL of the quenching solution (50% acetonitrile, 50% methanol, and 0.05% formic acid) containing the internal standard was added to each well. The incubation plates were sealed, vortexed, and centrifuged at 4 °C for 15 min at 4000 rpm. The supernatant was transferred to fresh plates for LC/MS/MS analysis of the test compounds. The peak area ratios of each test compound over the internal standard were plotted against incubation time, and the t½ was calculated from the curve assuming first-order kinetics.
# [5] = test system: primary human monocytes; assay: Activation of primary human monocytes (CD83/CD86 flow cytometry); format: cell-based; conditions: Monocyte, 24 h after stimulation
# Excerpt: Frozen human PBMCs (100 × 10^6 cells) were obtained from Stem Cell Technologies (Kent, WA, USA). Monocytes were purified from PBMCs using a CD14^+ pan-monocyte-negative isolation kit and an LS column (Miltenyi Biotec, Bergisch Gladbach, Germany). Magnetically labeled non-target cells were depleted by retaining them within a MACS column in the magnetic field of a MACS Separator, while highly purified unlabeled CD1 D16^− cells were collected and used to generate dendritic cells.
# The cell suspension was then incubated with a predetermined optimal concentration of the appropriate fluorescent dye-labeled monoclonal antibodies (mAbs) against human cell surface markers on ice for 30 min. The fluorescent dye-labeled mAbs against human cell surface molecules included anti-CD209, anti-CD14, anti-CD11c, anti-CD40, anti-HLA-DR, anti-CD86, and anti-CD83 (BD Biosciences, Franklin Lakes, NJ, USA or BioLegend, San Diego, CA, USA). In addition, a fixable live/dead stain (Thermo Fisher Scientific) at a dilution of 1:1000 was added to exclude dead cells. After several washes with FACS buffer, cells were resuspended in FACS buffer and analyzed on an Attune Nxt flow cytometer (Thermo Fisher Scientific) with FlowJo v10 software (BD Biosciences). An aliquot of the cells to be analyzed served as controls by using “fluorescent minus-one” to establish gates and determine the frequency of positively stained cells. Ultra-comp beads (Thermo Fisher Scientific) were used as single-stained controls to set up compensation on the flow cytometer.
# [6] = test system: CT26 tumors; assay: Re-challenge with CT26 of mice with complete tumor regression; format: in vivo, mouse
# Description: Ten naïve, age-matched female BALB/c mice were used as controls. […] Tumor growth was measured as described above.
compound,measurement,setting,value
CO[C@H]1[C@H]2OP(=O)(O)OC[C@@]34C[C@@H]3[C@@H](n3cnc5c(N)ncnc53)[C@H](O)[C@@H]4O[P@](=O)(S)OC[C@H]1O[C@H]2n1cnc2c(=O)[nH]c(N)nc21 [ALG-031048],Plasma cytokines after IT dosing,[1],"increased cytokines such as IFN-α and -β, TNF-α, interleukin 6 (IL-6), MCP-1, and IP-10"
same,Plasma cytokines after IT administration,[2],"increased plasma cytokines IFN-β1, IFN-γ, IL-6, MCP-1, MIP-1α, and TNF-α"
same,Tumor weight at end of study,"[3]; Hepa1–6, IT 25 and 100 μg",reduction in tumor weight
same,Tumor reduction at end of study,"[3]; Hepa1–6, three IT doses of 25 μg (Days 1, 5, 9)",12%
same,Mean tumor reduction at end of study,"[3]; Hepa1–6, three IT doses of 100 μg (Days 1, 5, 9)",88%
same,"Complete tumor regression, animals",[3]; Hepa1–6 model,100%
same,half-life at 5 µM,[4],> 1 h
same,EC50,"[5]; read-out: EC50 CD83, Monocytes",8.1 µM
same,EC50,"[5]; read-out: EC50 CD86, Monocytes",1.12 µM
same,Animals with complete tumor suppression (TV < 10 mm^3) after CT26 re-challenge,"[6]; Figure 5C, previously 100 μg IT × 3, CT26 left flank, 25 days, no further treatment",six
same,TV at last measurement of animals with delayed tumor growth after CT26 re-challenge,"[6]; Figure 5C, three animals",40–221 mm^3
same,TV at end of study of remaining re-challenged animal,"[6]; complete responders to 100 μg IT 3 × q3d, CT26 re-challenge",864 mm^3
same,Animals with tumor growth suppressed after CT26 re-challenge,"[6]; complete responders to 100 μg IT 3 × q3d, re-challenged on opposite flank, 40 days without additional treatment",8 of 9
